Ends that are not written are not given here.
Experiments:
Type in all cases: cell-based
APJ receptor [1] = biological target: T1, APJ receptor (Homo sapiens, UniProt P35414); test: FLIPR calcium assay in CHO cells transiently cotransfected with APJ receptor and G protein α subunits (FIG. 3); design: expressed in transfected cells; host or cells: CHO (Chinese hamster ovary), transient; conditions: 1 μmol/l peptide; CHO cells cotransfected with APJ and α16 or αΔ6qi4myr; response required chimeric/promiscuous Gα subunit
T1 sequence (P35414 1-380): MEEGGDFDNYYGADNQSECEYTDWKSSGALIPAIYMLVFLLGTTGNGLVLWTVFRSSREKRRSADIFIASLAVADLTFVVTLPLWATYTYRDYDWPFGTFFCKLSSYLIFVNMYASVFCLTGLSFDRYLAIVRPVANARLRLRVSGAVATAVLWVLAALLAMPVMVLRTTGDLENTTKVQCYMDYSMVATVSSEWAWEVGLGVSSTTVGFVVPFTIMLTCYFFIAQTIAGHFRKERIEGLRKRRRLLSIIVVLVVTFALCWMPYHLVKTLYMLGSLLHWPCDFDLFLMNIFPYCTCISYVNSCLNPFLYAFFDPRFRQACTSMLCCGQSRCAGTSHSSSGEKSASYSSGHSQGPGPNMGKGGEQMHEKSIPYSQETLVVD
Text: The APJ receptor was transiently cotransfected in CHO cells (Chinese hamster ovary cells) with vector DNA as a control (white column) or the G protein α subunits α16 (black column) and αΔ6qi4myr (striped column) according to methods known to the one skilled in the art. […] Data presented are mean values (fluorescence intensity units, FIU) from 2 individual experiments performed in duplicate.
(§1) The FLIPR calcium assay provides a suitable method for detecting changes in intracellular calcium concentration. It is a fluorescence-based assay which was performed according to the manufacture's instructions (Molecular Devices, CA, USA). Briefly summarized, cells were seeded on 96- or 384-well plates Loading Buffer was added to the cells and plates incubated for 1 hour at 37° C. After incubation cells were stimulated with the prevailing APJ receptor ligand or none. Thereafter intracellular calcium concentration was measured in the FLIPR according to the FLIPR system manual.

APJ receptor [2] = biological target: T1, APJ receptor; test: FLIPR calcium assay in stably transfected HEK 293 cells overexpressing G protein and APJ receptor (FIG. 4); design: expressed in transfected cells; host or cells: HEK 293; conditions: 50 nmol/l, 200 nmol/l, 1 μmol/l; HEK 293 stably cotransfected with G protein and APJ; response required APJ receptor
Protocol: Data presented are mean values (fluorescence intensity units, FIU) from 2 individual experiments performed in duplicate.
as §1

APJ receptor [3] = biological target: T1, APJ receptor; test: FLIPR calcium assay, EC50 of apelin peptides in HEK293-PSCi4qi4-APJ cells; design: expressed in transfected cells; host or cells: HEK293-PSCi4qi4 (HEK 293 stably expressing Gαi4qi4); conditions: intracellular calcium
Protocol: as §1

Molecule	intracellular calcium release via the APJ receptor (APJ receptor [1])	intracellular calcium release via the APJ receptor (APJ receptor [2])	EC50 (APJ receptor [3]; first of two independent measurements)	EC50 (APJ receptor [3]; second of two independent measurements)
CSCC[C@H](NC(=O)[C@@H]1CCCN1C(=O)CNC(=O)[C@H](CCCCN)NC(=O)[C@H](Cc1c[nH]cn1)NC(=O)[C@H](CO)NC(=O)[C@H](CC(C)C)NC(=O)[C@H](CCCNC(=N)N)NC(=O)[C@@H]1CCCN1C(=O)[C@@H](N)CCCNC(=N)N)C(=O)N1CCC[C@H]1C(=O)N[C@@H](Cc1ccccc1)C(=O)O [Apelin-12]	induced intracellular calcium release	–	–	–
LVQPRGSRNGPGPWQGGRRKFRRQRPRLSHKGPMPF [Apelin-36]	induced intracellular calcium release	induced intracellular calcium release via the APJ receptor in a dose-dependent manner	51 nM	27 nM
